Assay results taken from patent US5116815A, “PF 1022 substance, method of treating helminthic parasitic infection and anthelmintic composition” (Meiji Seika Kaisha Ltd., priority 1989, dated 1992).
Several values for one entry are separate records, joined by “and”; a condition that tells them apart may be missing. Equal values may be shown once.

How the values were obtained:
Type in all cases: in vivo
[1] = Oral toxicity in mice (body weight gain, abnormalities); settings: 300 mg/kg
[2] = system: large intestinal roundworms (Ascaridia galli); test: Chicken large intestinal roundworm elimination test, single oral dose; settings: chickens; for Mean % Elimination / % Elimination: 7 days; for Mean % Elimination / Mean % body weight gain: group of 3; for % Elimination / % Body weight gain: individual chicken; for Mean % body weight gain / % Body weight gain: after 7 days
Experimental: Chickens verified to be artificially infected with large intestinal roundworms (Ascaridia galli) by scatoscopy were used in groups of three animals. The PF 1022 substance was used at five levels of dose from 0.2 mg/kg to 3 mg/kg. A total of 18 chickens were used in 6 groups, inclusive of an untreated control group.
For administration, an amount of the PF 1022 substance exactly equal to the dose calculated on the basis of the body weight of each chicken was weighed and suspended in water containing carboxymethylcellulose (CMC), and the suspension was administered orally as a single dose using a stomach tube. After administration, the worms eliminated were counted daily for each chicken and, after 7 days, each chicken was sacrificed and autopsied and the worms remaining in the intestinal tract were counted. The percent elimination was calculated as follows: [formula] Furthermore, the body weight just prior to administration and the body weight after 7 days were measured for each chicken and the percent body weight gain was calculated as follows: [formula]

[3] = system: large intestinal roundworms (Ascaris suum); test: Anthelmintic activity against swine large intestinal roundworms; settings: oral in feed; for Number of remaining worms: autopsy one week; for EPG Before administration: baseline; for EPG Upon autopsy: one week
Experimental: The anthelmintic effect of the PF 1022 substance in swine was evaluated by orally administering the substance to swine found to be infected with large intestinal roundworms (Ascaris suum) by scatoscopy.
The PF 1022 substance was administered either once at 5 mg/kg or 10 mg/kg, or at a daily dose of 1.25 mg/kg, 2.5 mg/kg or 5 mg/kg once daily for consecutive 2 days by admixing an amount of the substance as such equal to each dose with a small portion of the ordinary feed. After administration, the worms eliminated were counted and the feces examined for the number of roundworm eggs per gram of feces (EPG) daily. One week after commencement of administration, the animals were sacrificed and autopsied for counting the worms remaining in the intestinal tract.

[4] = system: roundworms (Toxocara canis); test: Anthelmintic effect on canine roundworms; settings: dog, single oral dose 5 mg/kg
Experimental: (§1) The PF 1022 substance was evaluated for its anthelmintic effect in dogs by orally administering it to dogs found to be infected with roundworms (Toxocara canis), hookworms (Ancylostoma caninum) and whipworms (Trichuris vulpisl), respectively, by scatoscopy.
The substance was orally administered once at the dose of 5 mg/kg to a dog infected with the roundworms or hookworms by admixing the substance with a small portion of the ordinary feed, and the worms eliminated and those remaining in the dog during 7 days following administration were counted.

[5] = system: whipworms (Trichuris vulpisl); test: Anthelmintic effect on canine whipworms; settings: dog; for whipworms eliminated / whipworms remaining: 7 days
Experimental: as §1
Thus, the elimination was 100% in both cases. On the other hand, one of two dogs infected with the above-mentioned whipworms was given orally one single dose of 5 mg/kg and the other 10 mg/kg, and the worms eliminated and those remaining uneliminated during 7 days following administration were counted. […] At 10 mg/kg, 22 whipworms were eliminated while none were found remaining uneliminated. Thus, the elimination was 100%.

[6] = single oral dose 0.2 mg/kg, 0.2 mg/kg
[7] = single oral dose 0.5 mg/kg, 0.5 mg/kg
[8] = single oral dose 1 mg/kg, 1 mg/kg
[9] = single oral dose 2 mg/kg, 2 mg/kg
[10] = single oral dose 3 mg/kg, 3 mg/kg
[11] = 2 administrations, 1.25 mg/kg/administration, 1.25 mg/kg
[12] = 2 administrations, 2.5 mg/kg/administration
[13] = 2 administrations, 5 mg/kg/administration

In the case of `CC(C)C[C@H]1C(=O)O[C@H](Cc2ccccc2)C(=O)N(C)[C@@H](CC(C)C)C(=O)O[C@H](C)C(=O)N(C)[C@@H](CC(C)C)C(=O)O[C@H](Cc2ccccc2)C(=O)N(C)[C@@H](CC(C)C)C(=O)O[C@H](C)C(=O)N1C` [PF 1022 substance], the “body weight gains and abnormalities” value [1] is reported as “normal body weight gains are obtained without any abnormalities”, the “Mean % Elimination” value ([2]; single oral dose 0.2 mg/kg) is reported as 18.5% and the “% Elimination” value [2, 6] is reported as 12.9% and 16.0% and 26.7%. For the same compound, the “Mean % body weight gain” value ([2]; single oral dose 0.2 mg/kg) was 9.6%, the “% Body weight gain” value [2, 6] was 6.3% and 8.4% and 14.0% and the “Mean % Elimination” value ([2]; single oral dose 0.5 mg/kg) was 45.4%. The “% Elimination” value [2, 7] was 16.4% and 52.1% and 67.7%, the “Mean % body weight gain” value ([2]; single oral dose 0.5 mg/kg) was 9.2% and the “% Body weight gain” value [2, 7] was 8.2% and 11.5% and 7.8%. For the same compound, the “Mean % Elimination” value ([2]; single oral dose 1 mg/kg) was 74.1%, the “% Elimination” value [2, 8] was 60.0% and 76.1% and 86.2% and the “Mean % body weight gain” value ([2]; single oral dose 1 mg/kg) was 8.7%. The “% Body weight gain” value [2, 8] was 8.2% and 6.6% and 11.2%, the “Mean % Elimination” value ([2]; single oral dose 2 mg/kg) was 84.6% and the “% Elimination” value [2, 9] was 82.1% and 93.5% and 78.3%. The “Mean % body weight gain” value ([2]; single oral dose 2 mg/kg) was 8.9%, the “% Body weight gain” value [2, 9] was 7.8% and 10.5% and 8.4% and the “% Elimination” value [2, 10] was 100% and 95.5% and 98.3%. The “% Body weight gain” value [2, 10] was 11.8% and 9.7% and 8.3%, the “Number of worms eliminated” value ([3]; 1 administration, 5 mg/kg) was 12 and the “Number of remaining worms” value ([3]; 1 administration, 5 mg/kg) was 13. For the same compound, the “EPG Before administration” value ([3]; 1 administration, 5 mg/kg) was 99000, the “EPG Upon autopsy” value ([3]; 1 administration, 5 mg/kg) was 8000 and the “Number of worms eliminated” value ([3]; 1 administration, 10 mg/kg) was 7. The “Number of remaining worms” value ([3]; 1 administration, 10 mg/kg) was 5, the “EPG Before administration” value ([3]; 1 administration, 10 mg/kg) was 2100 and the “EPG Upon autopsy” value ([3]; 1 administration, 10 mg/kg) was 200. For the same compound, the “Number of worms eliminated” value ([3]; 2 administrations, 1.25 mg/kg/administration) was 2, the “% Elimination” value [3, 11] was 18.2% and 33.3% and the “EPG Before administration” value [3, 11] was 2300 and 1800. The “Number of remaining worms” value [3, 12] was 1, the “EPG Before administration” value ([3]; 2 administrations, 2.5 mg/kg/administration, 2.5 mg/kg) was 3300 and 3800 and the “EPG Upon autopsy” value [3, 12] was 0. For the same compound, the “% Elimination” value [3, 13] was 100%, the “Number of worms eliminated” value [3, 13] was 13 and the “Number of remaining worms” value [3, 13] was 0. For the same compound, the “EPG Before administration” value [3, 13] was 2700, the “EPG Upon autopsy” value [3, 13] was 0 and the elimination [4] was 100%. For the same compound, the roundworms eliminated ([4]; 7 days) was “six”, the roundworms remaining ([4]; 7 days) was “no roundworms were found remaining” and the percent elimination ([5]; single oral dose 5 mg/kg) was 39.4%. The whipworms eliminated ([5]; single oral dose 5 mg/kg) was 327, the whipworms remaining ([5]; single oral dose 5 mg/kg) was 504 and the elimination ([5]; single oral dose 10 mg/kg) was 100%. For the same compound, the whipworms eliminated ([5]; single oral dose 10 mg/kg) was 22 and the whipworms remaining ([5]; single oral dose 10 mg/kg) was “none”.
